Measured values as given in article PMC5038265 (Antimicrobial Agents and Chemotherapy, 2016).
Values after ≈ are worked out from the molar mass of the structure shown. Where two headings read alike, the source gives them in different places.

Assays:
M. tuberculosis LeuRS = M. tuberculosis LeuRS (Mycobacterium tuberculosis, UniProt P9WFV1); test: biochemical; set-up: species or system M. tuberculosis H37Rv
M. tuberculosis H37Rv [1] = test: MIC for M. tuberculosis H37Rv (resazurin/alamarBlue); assay type: cell-based, Mycobacterium tuberculosis; conditions: for MIC: Mycobacterium tuberculosis, H37RV, read-out: MIC M.tb H37Rv
[2] = target: M. tuberculosis LeuRS editing domain (Mycobacterium tuberculosis, UniProt P9WFV1); test: biochemical; assay type: binding
in vitro = in vitro ADME; conditions: mouse plasma, 1 and 10 µg/ml, ultrafiltration; read-out: Mouse PPB (converted)
Method: Compounds were added to 1.5-ml aliquots of mouse plasma at concentrations of 1 and 10 µg/ml and then incubated in a shaking water bath at 37°C for 15 min. Both samples were treated similarly, and a 0.5-ml aliquot was removed from each tube and added to the filter reservoir of Microcon centrifugal filter devices (Ultracel YM-30 with a molecular mass cutoff of 30 kDa). The devices were centrifuged at 1,000 × g for 10 min, and 100 μl of the filtrate was transferred to a 96-well plate and diluted 5-fold. Ten-microliter volumes of the samples were injected and analyzed with the LC-MS/MS system. All samples were analyzed in duplicate. Quantitation was based on the peak area ratio of the analyte over the internal standard, and all integrations were performed with peak areas by using Analyst version 1.4.1 (Applied Biosystems, Foster City, CA, USA). Plasma protein binding was calculated based on the following equation: Plasma Protein Binding (%)=(PeakAreaPlasma UltrafilrateSpiked−PeakAreaPlasmaFiltrate)/PeakAreaPlasma UltrafiltrateSpiked×100

Vero cells = test: In vitro cytotoxicity assay (MTT); assay type: cell-based, African green monkey; conditions: Chlorocebus sabaeus, 72 h
Method: Vero epithelial cells (from African green monkey; ATCC CCL-81) were cultured in Dulbecco's modified Eagle's medium (DMEM) supplemented with 10% fetal bovine serum (FBS) and maintained in a humidified incubator (37°C in 5% CO2). Cells were dislodged with a cell scraper, collected by centrifugation, resuspended in fresh medium at ∼10^6 cells/ml, dispensed into 96-well microtiter plates ([…]), and incubated for 18 h at 37°C. Twofold serial dilutions of test compounds in DMEM with FBS were subsequently added, and cells were incubated for another 72 h. In triplicate studies, the cytopathic effects of compounds were evaluated colorimetrically by using the 3-(4,5-dimethyl-2-thiazolyl)-2,5-diphenyl-2H-tetrazolium bromide (MTT) cell proliferation assay (ATCC). IC50 data were obtained from dose-response curves plotted by using GraphPad Prism 5.

in vivo = conditions: mouse, 30 mg/kg; for α-t1/2 % AUC / β-t1/2 % AUC: i.v.; for AUC(0-inf) / Cmax / MRT / Vd / clearance / half-life / AUC(0-t) / Tmax / bioavailability: in vivo
Method: Mouse pharmacokinetic studies were conducted by using female CD-1 mice for compounds 1, 11, and 12, while BALB/c mice were used for compound 13. Mouse body weights were 19 to 28 g, and on the morning of dosing, mice were split randomly into 3 dosing groups to receive the test article by either intravenous (i.v.) tail vein injection or oral (p.o.) gavage. After dosing, blood samples were collected via cardiac puncture at specific time points (n = 3 mice/time point) through 24 h (K2EDTA as an anticoagulant) and processed for plasma. Antibiotic concentrations in the plasma samples were analyzed by liquid chromatography-tandem mass spectrometry (LC-MS/MS). The LC-MS/MS analysis was conducted by using analyte/internal standard peak area methods. The internal standard was AN3365 ([21]), and the instrument used was an API4000 QTRAP instrument (AB Sciex). The limit of quantitation (LOQ) was 1 or 2 ng/ml. Pharmacokinetic analyses of the mean plasma concentration-time profiles were performed by using WinNonlin Pro version 5.2. A compartmental model was used for the data for i.v. dosing, and a noncompartmental model was used for the data for p.o. dosing. […] Compounds 1 and 13 were formulated in saline (0.9% [wt/vol] NaCl) at 7.5 mg/ml, and the pH was adjusted to >5 by the addition of NaOH. Compound 11 was formulated to 6.5 mg/ml in water-dimethylacetamide-ethanol (EtOH) (76:19:5), and the pH was adjusted to >5 by the addition of NaOH. Compound 12 was formulated to 7.5 mg/ml in PEG 300-propylene glycol (PG)-water (55:25:20), and the pH was adjusted to >5 by the addition of NaOH.

HepG2 cells = test: HepG2 cell viability (Janus green staining); assay type: cell-based; conditions: Homo sapiens, 168 h, HepG2, 7 days, read-out: Mean EC50 ± SD Cell viability
Method: (§1) The human liver carcinoma-derived HepG2 cell line was obtained from the ATCC (ATCC HB-8065). HepG2 cells were grown in Dulbecco's modified Eagle's medium containing 10% fetal calf serum, 1 mM sodium pyruvate, 0.1 mM essential amino acids, and 50 U/ml penicillin-streptomycin at 37°C with 5% CO2. HepG2 cells were seeded into 96-well plates at 3,000 cells/200 μl/well in cell culture medium. Cells were then grown in the presence of the compounds at 37°C in 10% CO2 for 7 days in at least duplicate concentrations, with the medium and compounds being replaced on the fourth day. After 7 days, the levels of SDHA (subunit A of the succinate dehydrogenase complex) and COX1 (cytochrome c oxidase) were determined by using the MitoSciences In-Cell enzyme-linked immunosorbent assay (ELISA) kit. Janus green staining was used to determined cell viability after 7 days (In-Cell ELISA kit, catalog number MS643).

SDHA in HepG2 cells = test: Mitochondrial protein synthesis assay, SDHA level; assay type: cell-based; conditions: Homo sapiens, 168 h; HepG2, 7 days; read-out: Mean EC50 ± SD SDHA
Method: as §1

COX1 in HepG2 cells = test: Mitochondrial protein synthesis assay, COX1 level; assay type: cell-based; conditions: Homo sapiens, 168 h; HepG2, 7 days; read-out: Mean EC50 ± SD COX1
Method: as §1

M. tuberculosis H37Rv [3] = assay type: in vivo, C57BL/6J mice; conditions: mouse, in vivo

Chain of M. tuberculosis LeuRS editing domain (P9WFV1 309-513): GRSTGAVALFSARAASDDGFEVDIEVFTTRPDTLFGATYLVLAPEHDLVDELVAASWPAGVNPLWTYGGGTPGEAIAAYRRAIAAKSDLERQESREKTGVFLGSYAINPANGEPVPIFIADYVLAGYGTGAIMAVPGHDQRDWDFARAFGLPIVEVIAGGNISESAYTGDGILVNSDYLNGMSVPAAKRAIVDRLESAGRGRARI
Chain of M. tuberculosis LeuRS (P9WFV1 whole entry): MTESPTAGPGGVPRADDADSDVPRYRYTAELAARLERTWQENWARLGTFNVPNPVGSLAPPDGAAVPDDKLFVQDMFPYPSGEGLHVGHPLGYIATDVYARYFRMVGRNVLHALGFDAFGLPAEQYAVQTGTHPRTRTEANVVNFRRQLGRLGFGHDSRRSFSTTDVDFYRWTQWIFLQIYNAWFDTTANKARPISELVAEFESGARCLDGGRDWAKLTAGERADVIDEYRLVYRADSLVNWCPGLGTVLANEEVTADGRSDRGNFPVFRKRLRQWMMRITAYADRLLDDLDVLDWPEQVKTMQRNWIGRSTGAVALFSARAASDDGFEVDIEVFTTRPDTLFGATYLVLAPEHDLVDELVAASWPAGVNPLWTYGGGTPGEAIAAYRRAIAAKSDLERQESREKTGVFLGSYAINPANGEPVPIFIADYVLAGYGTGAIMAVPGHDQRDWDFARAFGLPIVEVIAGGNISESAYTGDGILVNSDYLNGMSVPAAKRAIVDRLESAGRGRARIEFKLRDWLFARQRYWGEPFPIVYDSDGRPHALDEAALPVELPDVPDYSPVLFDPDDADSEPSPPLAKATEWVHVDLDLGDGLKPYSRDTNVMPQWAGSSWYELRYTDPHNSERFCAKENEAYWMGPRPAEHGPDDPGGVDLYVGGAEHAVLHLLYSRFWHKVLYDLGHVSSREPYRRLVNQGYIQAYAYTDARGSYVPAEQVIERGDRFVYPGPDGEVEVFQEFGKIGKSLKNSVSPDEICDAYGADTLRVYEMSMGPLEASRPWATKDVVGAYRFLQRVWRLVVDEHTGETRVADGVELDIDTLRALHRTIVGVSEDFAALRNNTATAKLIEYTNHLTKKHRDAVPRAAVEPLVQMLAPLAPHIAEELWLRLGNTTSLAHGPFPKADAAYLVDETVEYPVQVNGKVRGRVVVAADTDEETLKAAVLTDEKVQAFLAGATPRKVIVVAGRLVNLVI

| SMILES | IC50 (M. tuberculosis LeuRS; read-out: IC50 M.tb LeuRS) [nM] | MIC (M. tuberculosis H37Rv [1]) [µg/mL] | fraction unbound (in vitro) | α-t1/2 % AUC (in vivo) [% AUC] | β-t1/2 % AUC (in vivo) [% AUC] | AUC(0-inf) (in vivo; iv) [ng·h/mL] | Cmax (in vivo; iv) [ng/mL] | MRT (in vivo; iv) [h] | Vd (in vivo; iv) [L/kg] | clearance (in vivo; iv) [mL/min/kg] | half-life (in vivo; iv, α-t1/2, mouse) [min] | half-life (in vivo; iv, β-t1/2, mouse) [min] | AUC(0-t) (in vivo; po) [ng·h/mL] | Cmax (in vivo; po) [ng/mL] | Tmax (in vivo; po) [min] | bioavailability (in vivo; po) [%] | half-life (in vivo; po, Terminal t1/2, mouse) [min] | EC50 (HepG2 cells) [µM] | EC50 (SDHA in HepG2 cells) [µM] | EC50 (COX1 in HepG2 cells) [µM] | further results |
| --- | --- | --- | --- | --- | --- | --- | --- | --- | --- | --- | --- | --- | --- | --- | --- | --- | --- | --- | --- | --- | --- |
| CCOc1cccc2c1B(O)O[C@@H]2CN [Compound 2] | 130 | 0.13 (≈ 0.628 µM) | 0.94 | 5 | 95 | 13800 | 8900 | 2.1 | 2.12 | 36.3 | 3.6 | 90 | 13200 | 3400 | 30 | 96 | 108 |  |  |  | No. of sites ([2]; ITC, 25°C, with AMP): 1.05; ΔGap ([2]; ITC, 25°C, with AMP): -7.4 kcal/mol; ΔHap ([2]; ITC, 25°C, with AMP): -1.1 kcal/mol; −TΔSap ([2]; ITC, 25°C, with AMP): -6.3 kcal/mol; Kd ([2]; ITC, 25°C, with AMP, read-out: Kd): 3700 nM; EC50 (Vero cells): > 50 µM |
| CCOc1ccc(Cl)c2c1B(O)O[C@@H]2CN [Compound 13] |  | 0.02 (≈ 0.0828 µM) | 0.77 | 2 | 98 | 51600 | 13600 | 5.4 | 3.14 | 9.7 | 6 | 230 | 47500 | 6400 | 15 | 92 | 186 | 80 ± 5.7 | 20.5 ± 2.1 | > 150 | IC50 (M. tuberculosis LeuRS): 60 nM; Kd [2]: 75 nM; No. of sites [2]: 1.19; ΔGap [2]: -9.7 kcal/mol; ΔHap [2]: -4.2 kcal/mol; −TΔSap [2]: -5.5 kcal/mol |
| CCOc1ccc(F)c2c1B(O)O[C@@H]2CN [Compound 12] | 80 | 0.05 (≈ 0.222 µM) | 0.84 | 7 | 93 | 26800 | 13700 | 3.4 | 3.81 | 18.6 | 6.6 | 152 | 23800 | 5000 | 60 | 89 | 162 | 23 ± 1.4 | 39.5 ± 9.2 | > 150 |  |
| CC(=O)NC[C@H]1CN(c2ccc(N3CCOCC3)c(F)c2)C(=O)O1 [Linezolid, linezolid] |  |  |  |  |  |  |  |  |  |  |  |  |  |  |  |  |  | > 150 | > 150 | 27.3 ± 10.8 | MIC values used in kill kinetics experiment (M. tuberculosis H37Rv [1]): 0.6 µg/mL (≈ 1.78 µM); reduction in CFU (M. tuberculosis H37Rv [3]): 2.6 log10 |
